US20260151517A1, “SOMATOSTATIN RECEPTOR-TARGETING RADIOPHARMACEUTICALS AND USES THEREOF” (Nuclidium AG, priority 2024, published 2026)
Where a SMILES comes first, the peptide text is derived from it. Bridges are numbered along the chain shown (N, C = ends). [ ]: non-standard residue; d: D form. The star is where a group is joined. X2 = O=C(O)CN1CCN(CC(=O)O)CCN([C@H](CCC(=O)*)C(=O)O)CC1; dPhe(4-NHCONH2) = NC(=O)Nc1ccc(C[C@@H](N)C(=O)O)cc1; Phe(4-Cl) = N[C@@H](Cc1ccc(Cl)cc1)C(=O)O

Key:
[1] = PET/CT imaging after [^61Cu]CuCl2 injection; format: in vivo
[2] = Specificity (blocking) study with excess DOTA-LM3; settings: athymic nude Foxn1^nu, mouse, total radioactivity
Method: (§4) Unless otherwise specified, the in vivo studies were performed on athymic nude Foxn1^nu 4-6 weeks-old mice. Animals were injected in the shoulder with HEK-SST2 cells (10^7 cells/200 μL) suspended in PBS. The in vivo experiments were performed when tumors reached a volume between 100-500 mm. At the intervention, all mice were between 7 and 11 weeks old.
(§5) The specificity study was performed parallel to pharmacokinetics studies. For this reason, NODAGA-LM3 was radiolabeled with ^64Cu.
(§6) The specificity of [^64Cu]Cu-NODAGA-LM3 for SSTR2-expressing tissues was evaluated in HEK-SST2 xenograft mice through a blocking study. The mice were administered with 0.15 MBq of [^64Cu]Cu-NODAGA-LM3 co-injected with a 2000-fold excess of DOTA-LM3 as a blocking agent. The mice were sacrificed 4 hours post-injection, and the organs were collected. weighed, and counted in a gamma counter.

HEK-SST2 xenograft mice = assay: Specificity (blocking) study with excess DOTA-LM3; settings: inferred from low, stable liver accumulation
Method: as §4, §5, §6

[3] = Extended single-dose toxicity study (GLP, microdose approach); format: in vivo, mice; settings: both sexes, C57BL/6NCrl, mouse, in vivo, iv, 5 mg/kg; single i.v. dose, 14 days observation, mice; read-out: no adverse effect level (NOAEL)
Method: (§1) The precursor-induced toxicity was evaluated using the non-radiolabeled precursor in line with the IAEA and EMA guidelines. The non-clinical safety study was performed using the microdose approach I described in the ICH guideline M3 (R2). The study was designed as an extended single-dose toxicity study in one rodent species and performed under GLP conditions. NODAGA-LM3 toxicity was evaluated after intravenous administration on day 1 of the study, followed by an observation period of 14 days. 60 (30 males and 30 females) C57BL/6NCrl mice were divided into one dose group and one control group. The test item was administered once by i.v, administration into the tail vein.
(§2) In each of the two groups, 20 male and 20 female main animals were euthanized the day after dosing, whereas 10 male and 10 female recovery animals were kept for an observation period of 14 days after dosing to detect possible delayed occurrence or persistence of, or recovery from toxic effects. Three extra mice per sex were included as replacement animals. The dose group animals were injected with a 5 mg/kg vector in a 5 mL/kg dose volume. The control group underwent injection of the vehicle alone (5 mL/kg). The animals were examined twice daily for toxicity and morbidity/mortality signs. All animals were sacrificed for necropsy. Blood was taken before necropsy for analysis of hematologic and clinical biochemistry parameters. Organs were collected, weighted, and preserved in neutral buffered formaldehyde (4%) for histopathological examination. […] No effects on body weight gain or food consumption were noted. […] Therefore, these differences were considered to be unrelated to the test substance. […] All these changes were transitory and considered non-adverse.

C57BL/6NCrl mice = assay: as above; format: in vivo
Method: as §1, §2

SSTR1 = target: T1, SSTR1 (Homo sapiens, UniProt P30872); assay: Binding affinity (IC50) to SSTR subtypes, displacement of [Leu,D-Trp,^125I-Tyr]-somatostatin-28; settings: membrane pellet sections of SSTR1-expressing cells
T1 construct: expressed in transfected cells
T1 sequence (P30872 whole entry): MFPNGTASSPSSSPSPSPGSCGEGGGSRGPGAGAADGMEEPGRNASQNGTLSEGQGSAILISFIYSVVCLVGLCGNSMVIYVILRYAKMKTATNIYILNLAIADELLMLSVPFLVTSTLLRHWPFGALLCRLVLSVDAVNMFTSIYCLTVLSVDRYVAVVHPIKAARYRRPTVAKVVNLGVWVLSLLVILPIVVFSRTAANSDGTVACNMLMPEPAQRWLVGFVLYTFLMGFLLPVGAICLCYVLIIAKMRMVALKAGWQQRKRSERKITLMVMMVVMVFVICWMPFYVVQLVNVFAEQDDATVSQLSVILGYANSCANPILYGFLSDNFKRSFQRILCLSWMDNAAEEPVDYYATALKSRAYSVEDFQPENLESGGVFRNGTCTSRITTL
Method: (§3) The binding affinity of Cu-NODAGA-LM3 was determined by measuring the IC50 by labelling the precursor with natural copper (^natCu). The IC50 value is the concentration in which 50% of the specific binding of a reference radioligand to the tested molecule is inhibited. The universal somatostatin radioligand [Leu,D-Trp,^125I-Tyr]-somatostatin-28 was used as a reference radioligand. The assay was performed on […] cryostat sections of membrane pellets prepared from SSTR1-, SSTR2-, SSTR3-, SSTR4-, and SSTR5-expressing cells incubated with increasing concentrations of ^natCu-NODAGA-LM3. IC50 values for each SSTR subtype were calculated by mathematically extracting the concentration of the tested molecule, causing 50% displacing of the specific bounded [Leu,D-Trp,^125I-Tyr]-somatostatin-28.

SSTR5 = target: T2, SSTR5 (Homo sapiens, UniProt P35346); assay: as above; settings: membrane pellet sections of SSTR5-expressing cells
T2 construct: expressed in transfected cells
T2 sequence (P35346 whole entry): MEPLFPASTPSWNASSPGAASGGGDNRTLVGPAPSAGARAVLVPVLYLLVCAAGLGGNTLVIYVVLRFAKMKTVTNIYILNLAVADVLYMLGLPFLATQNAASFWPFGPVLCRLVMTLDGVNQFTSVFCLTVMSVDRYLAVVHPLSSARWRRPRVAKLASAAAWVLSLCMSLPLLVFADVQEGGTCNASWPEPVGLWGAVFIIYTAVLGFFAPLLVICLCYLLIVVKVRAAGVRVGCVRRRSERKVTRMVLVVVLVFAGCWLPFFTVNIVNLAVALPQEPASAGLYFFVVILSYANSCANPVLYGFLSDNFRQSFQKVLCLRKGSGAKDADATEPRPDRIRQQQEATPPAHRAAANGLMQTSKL
Method: as §3

SSTR2 = target: T3, SSTR2 (Homo sapiens, UniProt P30874); assay: as above; settings: membrane pellet sections of SSTR2-expressing cells
T3 construct: expressed in transfected cells
T3 sequence (P30874 whole entry): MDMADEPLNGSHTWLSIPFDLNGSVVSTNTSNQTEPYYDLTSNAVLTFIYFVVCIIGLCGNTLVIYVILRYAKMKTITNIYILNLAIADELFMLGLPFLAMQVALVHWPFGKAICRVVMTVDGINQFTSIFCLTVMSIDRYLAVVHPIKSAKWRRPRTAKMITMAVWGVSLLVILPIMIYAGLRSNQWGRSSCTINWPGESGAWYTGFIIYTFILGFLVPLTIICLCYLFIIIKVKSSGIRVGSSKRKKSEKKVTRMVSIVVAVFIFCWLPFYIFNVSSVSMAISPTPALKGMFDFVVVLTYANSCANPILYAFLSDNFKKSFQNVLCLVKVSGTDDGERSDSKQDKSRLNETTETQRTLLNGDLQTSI
Method: as §3

SSTR3 = target: T4, SSTR3 (Homo sapiens, UniProt P32745); assay: as above; settings: membrane pellet sections of SSTR3-expressing cells
T4 construct: expressed in transfected cells
T4 sequence (P32745 whole entry): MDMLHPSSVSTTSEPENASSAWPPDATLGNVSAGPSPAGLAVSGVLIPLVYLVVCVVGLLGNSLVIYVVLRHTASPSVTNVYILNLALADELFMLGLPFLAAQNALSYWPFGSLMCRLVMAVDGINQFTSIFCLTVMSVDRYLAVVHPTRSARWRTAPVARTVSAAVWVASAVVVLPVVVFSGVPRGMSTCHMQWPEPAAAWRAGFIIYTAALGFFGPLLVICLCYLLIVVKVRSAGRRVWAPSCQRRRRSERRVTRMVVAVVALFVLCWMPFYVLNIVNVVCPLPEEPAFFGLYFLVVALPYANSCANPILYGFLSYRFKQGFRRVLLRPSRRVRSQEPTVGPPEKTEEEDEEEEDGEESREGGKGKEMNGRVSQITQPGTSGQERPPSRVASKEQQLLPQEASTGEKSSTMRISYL
Method: as §3

SSTR4 = target: T5, SSTR4 (Homo sapiens, UniProt P31391); assay: as above; settings: membrane pellet sections of SSTR4-expressing cells
T5 construct: expressed in transfected cells
T5 sequence (P31391 whole entry): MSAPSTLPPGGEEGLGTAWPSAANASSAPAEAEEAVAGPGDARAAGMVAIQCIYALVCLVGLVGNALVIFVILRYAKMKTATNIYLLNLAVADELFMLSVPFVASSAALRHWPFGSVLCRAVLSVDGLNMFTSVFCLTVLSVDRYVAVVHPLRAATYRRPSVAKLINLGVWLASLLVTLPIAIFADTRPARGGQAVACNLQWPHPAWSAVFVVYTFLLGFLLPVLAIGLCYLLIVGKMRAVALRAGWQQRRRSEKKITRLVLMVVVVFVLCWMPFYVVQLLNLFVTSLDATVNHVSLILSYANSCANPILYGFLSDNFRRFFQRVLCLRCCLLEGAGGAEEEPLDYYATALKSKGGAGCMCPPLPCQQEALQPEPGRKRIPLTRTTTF
Method: as §3

Question: Which “excretion route of free isotopes” value [1] does the source give for [Cl][61Cu][Cl] [[^61Cu]CuCl2] here?
Answer: excreted mainly through the liver

Question: Which results are given for C[C@@H](O)[C@@H]1NC(=O)[C@H](CCCCN)NC(=O)[C@@H](Cc2ccc(NC(N)=O)cc2)NC(=O)[C@H](Cc2ccc(O)cc2)NC(=O)[C@H](NC(=O)[C@H](Cc2ccc(Cl)cc2)NC(=O)CC[C@H](C(=O)O)N2CCN(CC(=O)O)CCN(CC(=O)O)CC2)CSSC[C@@H](C(=O)N[C@H](Cc2ccc(O)cc2)C(N)=O)NC1=O [[^64Cu]Cu-NODAGA-LM3, metal not drawn] (X2-[Phe(4-Cl)][dC]Y[dPhe(4-NHCONH2)]KTC[dY]-NH2; disulfide 2-7)?
Answer: tissue uptake at 4 h ([2]; bone, 0.15 MBq, Uptake Bone, 4 hours post-injection, non-blocking): 0.39 ± 0.07 %ID/g; tissue uptake at 4 h ([2]; bone, with DOTA-LM3, 2000-fold excess, co-injected as blocking agent, Uptake Bone, 4 hours blocking, co-injected 2000-fold excess of DOTA-LM3): 0.01 ± 0.01 %ID/g; tissue uptake at 4 h ([2]; pancreas, 0.15 MBq, Uptake Pancreas, 4 hours post-injection, non-blocking): 0.55 ± 0.1 %ID/g; tissue uptake at 4 h ([2]; pancreas, with DOTA-LM3, 2000-fold excess, co-injected as blocking agent, Uptake Pancreas, 4 hours blocking, co-injected 2000-fold excess of DOTA-LM3): 0.12 ± 0.03 %ID/g; tissue uptake at 4 h ([2]; stomach, 0.15 MBq, Uptake Stomach, 4 hours post-injection, non-blocking): 1.31 ± 0.55 %ID/g; tissue uptake at 4 h ([2]; stomach, with DOTA-LM3, 2000-fold excess, co-injected as blocking agent, Uptake Stomach, 4 hours blocking, co-injected 2000-fold excess of DOTA-LM3): 0.43 ± 0.14 %ID/g; tissue uptake at 4 h ([2]; tumor, 0.15 MBq, Uptake Tumor, 4 hours post-injection, non-blocking): 37.9 ± 3.43 %ID/g; tissue uptake at 4 h ([2]; tumor, with DOTA-LM3, 2000-fold excess, co-injected as blocking agent, Uptake Tumor, 4 hours blocking, co-injected 2000-fold excess of DOTA-LM3): 0.52 ± 0.18 %ID/g; in vivo stability (HEK-SST2 xenograft mice): generally stable in vivo, with limited transchelation phenomena

Question: Which NOAEL at 14 days [3] does the source give for C[C@@H](O)[C@@H]1NC(=O)[C@H](CCCCN)NC(=O)[C@@H](Cc2ccc(NC(N)=O)cc2)NC(=O)[C@H](Cc2ccc(O)cc2)NC(=O)[C@H](NC(=O)[C@H](Cc2ccc(Cl)cc2)NC(=O)CC[C@H](C(=O)O)N2CCN(CC(=O)O)CCN(CC(=O)O)CC2)CSSC[C@@H](C(=O)N[C@H](Cc2ccc(O)cc2)C(N)=O)NC1=O [NODAGA-LM3, 2,2′-(7-((R)-4-(((S)-1-(((4R,7S,10S,13R,16S,19S)-4-(((R)-1-amino-3-(4-hydroxyphenyl)-1-oxopropan-2yl)carbamoyl)-10-(4-aminobutyl)-16-(4-hydroxybenzyl)-7-((R)-1-hydroxyethyl)-6,9,12,15,18-pentaoxo-13-(4-ureidobenzyl)-1,2-dithia-5,8,11,14,17-pentaazacycloicosan-19-yl)amino)-3-(4-chlorophenyl)-1-oxopropan-2-yl)amino)-1-carboxy-4-oxobutyl)-1,4,7-triazonane-1,4-diyl)diacetic acid] (X2-[Phe(4-Cl)][dC]Y[dPhe(4-NHCONH2)]KTC[dY]-NH2; disulfide 2-7) here?
Answer: 5 mg/kg

Question: What about the delayed toxicity (C57BL/6NCrl mice; 5 mg/kg i.v., 14 days observation) of the same molecule?
Answer: no indication of delayed toxicity

Question: And the “adverse systemic or local effects” value (C57BL/6NCrl mice; 5 mg/kg i.v., mice)?
Answer: did not cause any adverse systemic or local effects

Question: What about the “body weight gain or food consumption” value (C57BL/6NCrl mice; 5 mg/kg i.v., mice) of the same molecule?
Answer: No effects

Question: And the clinical tolerability (C57BL/6NCrl mice; 5 mg/kg i.v., mice)?
Answer: clinically well-tolerated

Question: And the mortality (C57BL/6NCrl mice; 5 mg/kg i.v., mice)?
Answer: no treatment-related mortality

Question: And the “macroscopic or microscopic findings” value (C57BL/6NCrl mice; 5 mg/kg i.v., necropsy and histopathology)?
Answer: No macroscopic or microscopic findings that could be attributed to treatment

Question: What about the “hematology, white cell count” value (C57BL/6NCrl mice; 5 mg/kg i.v., transitory, considered non-adverse) of the same molecule?
Answer: increased white cell count in male mice

Question: What about the “safety ratio vs intended maximum patient dose 0.8 μg/kg” value (C57BL/6NCrl mice; considering the dose conversion factor) of the same molecule?
Answer: higher than 1,000 times

Question: With C[C@@H](O)[C@@H]1NC(=O)[C@H](CCCCN)NC(=O)[C@@H](Cc2ccc(NC(N)=O)cc2)NC(=O)[C@H](Cc2ccc(O)cc2)NC(=O)[C@H](NC(=O)[C@H](Cc2ccc(Cl)cc2)NC(=O)CC[C@H](C(=O)O)N2CCN(CC(=O)O)CCN(CC(=O)O)CC2)CSSC[C@@H](C(=O)N[C@H](Cc2ccc(O)cc2)C(N)=O)NC1=O [^natCu-NODAGA-LM3, metal not drawn] (X2-[Phe(4-Cl)][dC]Y[dPhe(4-NHCONH2)]KTC[dY]-NH2; disulfide 2-7) as the molecule, how does the IC50 (SSTR1) read?
Answer: ≥ 1000 nM

Question: What about the IC50 (SSTR5) of the same molecule?
Answer: ≥ 1000 nM

Question: What about the IC50 (SSTR2) of the same molecule?
Answer: 6.7 ± 1.5 nM

Question: And the IC50 (SSTR3)?
Answer: ≥ 1000 nM

Question: What about the IC50 (SSTR4) of the same molecule?
Answer: ≥ 1000 nM
